According to US20240065988A1, “COMBINED USE OF KETAMINE AND RETIGABINE (EZOGABINE) FOR THE TREATMENT OF PSYCHIATRIC DISORDERS” (Yeda Research and Development Co. Ltd., priority 2021, published 2024):

Test system: single cells from the ventral hippocampus (vHipp)
Test: Single-cell RNA sequencing (scRNA-seq) of the ventral hippocampus after ketamine treatment; differential expression per cell type
[1] = Oligodendrocytes, ketamine 10 mg/kg i.p. vs saline
[2] = Vascular Cells, ketamine 10 mg/kg i.p. vs saline

CNC1(c2ccccc2Cl)CCCCC1=O (racemic) [ketamine, (R,S)-ketamine]
Zfp827 Change [1]: Up | Zfp827 logFC [1]: 0.208 | Change (P3h3, Glut Neurons): Down | Mean-Ket (P3h3, Glut Neurons): 2.278 | logFC (P3h3, Glut Neurons): −0.111 | Change (Pan3, Astrocytes): Down | Mean-Ket (Pan3, Astrocytes): 1.194 | logFC (Pan3, Astrocytes): −0.179 | Change (Pbld1, Glut Neurons): Down | Mean-Ket (Pbld1, Glut Neurons): 3.387 | logFC (Pbld1, Glut Neurons): −0.106 | Change (Poldip2, Astrocytes): Down | Mean-Ket (Poldip2, Astrocytes): 1.255 | logFC (Poldip2, Astrocytes): −0.142 | Change (Polr2c, Glut Neurons): Down | Mean-Ket (Polr2c, Glut Neurons): 2.412 | logFC (Polr2c, Glut Neurons): −0.101 | Change (Ppan, Glut Neurons): Down | Mean-Ket (Ppan, Glut Neurons): 2.680 | logFC (Ppan, Glut Neurons): −0.102 | Change (Ppp1r16b, Astrocytes): Down | Mean-Ket (Ppp1r16b, Astrocytes): 2.539 | logFC (Ppp1r16b, Astrocytes): −0.227 | Change (Rhpn2, Glut Neurons): Down | Mean-Ket (Rhpn2, Glut Neurons): 1.601 | logFC (Rhpn2, Glut Neurons): −0.114 | Change (Rpl6, Glut Neurons): Down | Mean-Ket (Rpl6, Glut Neurons): 0.808 | logFC (Rpl6, Glut Neurons): −0.190 | Change (Rpl41, Glut Neurons): Down | Mean-Ket (Rpl41, Glut Neurons): 2.239 | logFC (Rpl41, Glut Neurons): −0.192 | Change (Rps29, Glut Neurons): Down | Mean-Ket (Rps29, Glut Neurons): 0.978 | logFC (Rps29, Glut Neurons): −0.136 | Change (Rtn1, Glut Neurons): Down | Mean-Ket (Rtn1, Glut Neurons): 1.210 | logFC (Rtn1, Glut Neurons): −0.185 | Change (Saa3, Astrocytes): Up | Mean-Ket (Saa3, Astrocytes): 1.697 | logFC (Saa3, Astrocytes): 0.254 | Change (Saa3, Glut Neurons): Up | Mean-Ket (Saa3, Glut Neurons): 1.494 | logFC (Saa3, Glut Neurons): 0.193 | Change (Sec23b, Glut Neurons): Down | Mean-Ket (Sec23b, Glut Neurons): 2.447 | logFC (Sec23b, Glut Neurons): −0.109 | Change (Sec23ip, Glut Neurons): Down | Mean-Ket (Sec23ip, Glut Neurons): 2.674 | logFC (Sec23ip, Glut Neurons): −0.107 | Change (Slc23a1, Glut Neurons): Down | Mean-Ket (Slc23a1, Glut Neurons): 2.215 | logFC (Slc23a1, Glut Neurons): −0.114 | Change (Slc25a4, Glut Neurons): Down | Mean-Ket (Slc25a4, Glut Neurons): 0.872 | logFC (Slc25a4, Glut Neurons): −0.125 | Change (Snca, Glut Neurons): Down | Mean-Ket (Snca, Glut Neurons): 0.835 | logFC (Snca, Glut Neurons): −0.147 | Change (Swt1, Glut Neurons): Down | Mean-Ket (Swt1, Glut Neurons): 2.617 | logFC (Swt1, Glut Neurons): −0.085 | Change (Synb, Glut Neurons): Down | Mean-Ket (Synb, Glut Neurons): 1.730 | logFC (Synb, Glut Neurons): −0.118 | Change (Syne1, Astrocytes): Up | Mean-Ket (Syne1, Astrocytes): 1.068 | logFC (Syne1, Astrocytes): 0.128 | Change (Timeless, Glut Neurons): Down | Mean-Ket (Timeless, Glut Neurons): 2.582 | logFC (Timeless, Glut Neurons): −0.106 | Change (Tmsb4x, Glut Neurons): Down | Mean-Ket (Tmsb4x, Glut Neurons): 1.829 | logFC (Tmsb4x, Glut Neurons): −0.167 | Change (Tpd52, Astrocytes): Down | Mean-Ket (Tpd52, Astrocytes): 1.199 | logFC (Tpd52, Astrocytes): −0.145 | Change (Trpc4ap, Glut Neurons): Down | Mean-Ket (Trpc4ap, Glut Neurons): 1.729 | logFC (Trpc4ap, Glut Neurons): −0.115 | Change (Tuba1a, Astrocytes): Down | Mean-Ket (Tuba1a, Astrocytes): 1.483 | logFC (Tuba1a, Astrocytes): −0.162 | Change (Ube2k, Glut Neurons): Down | Mean-Ket (Ube2k, Glut Neurons): 2.844 | logFC (Ube2k, Glut Neurons): −0.099 | Change (Unc13d, Astrocytes): Down | Mean-Ket (Unc13d, Astrocytes): 1.469 | logFC (Unc13d, Astrocytes): −0.146 | Change (Usp34, Glut Neurons): Down | Mean-Ket (Usp34, Glut Neurons): 2.142 | logFC (Usp34, Glut Neurons): −0.099 | Flna Mean-Ket (Vascular Cells, ketamine 10 mg/kg i.p.): 2.309 | Flna Change [2]: Up | Flna logFC [2]: 2.044 | Change (Washc4, Glut Neurons): Down | Mean-Ket (Washc4, Glut Neurons): 2.856 | logFC (Washc4, Glut Neurons): −0.092 | Change (Wdr12, Glut Neurons): Down | Mean-Ket (Wdr12, Glut Neurons): 2.770 | logFC (Wdr12, Glut Neurons): −0.102 | Change (Yae1d1, Glut Neurons): Down | Mean-Ket (Yae1d1, Glut Neurons): 1.738 | logFC (Yae1d1, Glut Neurons): −0.143 | Change (Ythdc1, Astrocytes): Down | Mean-Ket (Ythdc1, Astrocytes): 1.822 | logFC (Ythdc1, Astrocytes): −0.144 | Change (Zcchc4, Glut Neurons): Down | Mean-Ket (Zcchc4, Glut Neurons): 0.973 | logFC (Zcchc4, Glut Neurons): −0.113 | Change (Zfp113, Glut Neurons): Down | Mean-Ket (Zfp113, Glut Neurons): 2.767 | logFC (Zfp113, Glut Neurons): −0.090 | Change (Zfp369, Glut Neurons): Up | Mean-Ket (Zfp369, Glut Neurons): 1.005 | logFC (Zfp369, Glut Neurons): 0.207 | genes differentially expressed exclusively in one cell type (astrocytes): 27 | genes differentially expressed exclusively in one cell type (endothelial cells): 1 | genes differentially expressed exclusively in one cell type (glutamatergic neurons): 135 | DEGs in glutamatergic neurons (glutamatergic neurons, all DEGs): 165 | total differentially expressed genes (DEGs) (in 7 of the 13 clusters, ketamine 10 mg/kg vs saline): 263 | relative cell type composition for each cluster, ketamine vs saline (ketamine 10 mg/kg BW i.p., 2 days post-injection): no significant differences | Change (mt-Atp6, Astrocytes): Up | Mean-Ket (mt-Atp6, Astrocytes): 2.236 | logFC (mt-Atp6, Astrocytes): 0.106 | Change (mt-Cytb, Astrocytes): Up | Mean-Ket (mt-Cytb, Astrocytes): 2.746 | logFC (mt-Cytb, Astrocytes): 0.093 | Change (mt-Nd2, Astrocytes): Up | Mean-Ket (mt-Nd2, Astrocytes): 1.340 | logFC (mt-Nd2, Astrocytes): 0.132 | Change (mt-Nd4, Astrocytes): Up | Mean-Ket (mt-Nd4, Astrocytes): 2.165 | logFC (mt-Nd4, Astrocytes): 0.125 | genes differentially expressed exclusively in one cell type (oligodendrocytes): 16 | genes differentially expressed exclusively in one cell type (vascular cells): 1
